# Data from patent US20160200789A1, “IL4 CONJUGATED TO ANTIBODIES AGAINST EXTRACELLULAR MATRIX COMPONENTS” (PHILOGEN S.P.A., priority 2013, published 2016).
# Tests used:
# Fibrosarcoma Wehi-164 = assay: Therapy of Wehi-164 fibrosarcoma-bearing mice; assay type: in vivo, mouse; conditions: 4 cycles i.v. every 48 h, equimolar doses
# Experimental: Fibrosarcoma Wehi-164 exponentially growing cells were harvested, repeatedly washed and re-suspended in serum-free medium prior to injection. The tumor cells were injected subcutaneously (5×10^6) in the right flank of Balb/c mice. Tumor weights (mg=mm^3) were calculated as follows: (length [mm]×width^2 [mm^2])/2.
# Treatment started when tumors reached approximately 100 mg. Mice received 4 cycles of therapy, every 48 h starting from day 5 after tumor cell injection. L19-IL4 (SEQ ID NO:64) was administered i.v. at the dose of 130 μg/mouse; equimolar amounts of KSF-IL4 (130 μg/mouse) (SEQ ID NO:44), KSF-IL10 (150 μg/mouse) (SEQ ID NO:65) and L19-IL10 (150 μg/mouse) (SEQ ID NO:66) were administered. Control mice received sterile vehicle solution (PBS). The results are shown in FIG. 16 (mean tumour weight over time). The number of mice in each treatment group was 3-4.
# CTLL2 cells = assay: CTLL2 cell proliferation bioactivity assay; assay type: cell-based; conditions: CTLL2 cells, 20000 cells/well, 24 h
# Experimental: The biological activity of murine IL4 was determined by its ability to stimulate the proliferation of CTLL2 cells. […] After incubation at 37° C. for 24 h, cell proliferation was determined with Cell Titer Aqueous One Solution (Promega).
# F9 teratocarcinoma = assay: Therapy studies in F9 teratocarcinoma-bearing mice; assay type: in vivo, mouse; conditions: mouse, in vivo
# Experimental: In a dose finding study, F9 tumour-bearing mice were randomly grouped (n=5) and injected intravenously (i.v.) into the lateral tail vein when tumours were clearly palpable. […] The therapeutic antibodies were all dissolved in phosphate buffered saline (PBS) and this buffer was also used in the negative control treatment groups. The mice were monitored daily and tumour volume was measured with a calliper (volume=length×width^2×0.5).
Molecule,therapeutic activity (tumour weight) (Fibrosarcoma Wehi-164),also measured
KSF-IL10: KSF antibody (hen egg lysozyme) conjugated to IL10; untargeted IL10,do not promote any significant therapeutic activity,
recombinant IL4: recombinant murine IL4 (eBioscience),,EC50 (CTLL2 cells): 0.028 nM
"F8-IL12: IL12-based immunocytokine: murine IL12 fused to single chain F8 diabody (protein, Synthetic sequence Amino acid sequence of (murine)IL12-F8-F8 of PCT/EP2014/053998, IL12-based immunocytokine: murine IL12 fused to single chain F8 diabody) MWELEKDVYVVEVDWTPDAPGETVNLTCDTPEEDDITWTSDQRHGVIGSGKTLTITVKEFLDAGQYTCHKGGETLSHSHLLLHKKENGIWSTEILKNFKNKTFLKCEAPNYSGRFTCSWLVQRNMDLKFNIKSSSSSPDSRAVTCGMASLSAEKVTLDQRDYEKYSVSCQEDVTCPTAEETLPIELALEARQQNKYENYSTSFFIRDIIKPDPPKNLQMKPLKNSQVEVSWEYPDSWSTPHSYFSLKFFVRIQRKKEKMKETEEGCNQKGAFLVEKTSTEVQCKGGNVCVQAQDRYYNSSCSKWACVPCRVRSGGGGSGGGGSGGGGSRVIPVSGPARCLSQSRNLLKTTDDMVKTAREKLKHYSCTAEDIDHEDITRDQTSTLKTCLPLELHKNESCLATRETSSTTRGSCLPPQKTSLMMTLCLGSIYEDLKMYQTEFQAINAALQNHNHQQIILDKGMLVAIDELMQSLNHNGETLRQKPPVGEADPYRVKMKLCILLHAFSTRVVTINRVMGYLSSAGSADGGEVQLLESGGGLVQPGGSLRLSCAASGFTFSLFTMSWVRQAPGKGLEWVSAISGSGGSTYYADSVKGRFTISRDNSKNTLYLQMNSLRAEDTAVYYCAKSTHLYLFDYWGQGTLVTVSSGGSGGEIVLTQSPGTLSLSPGERATLSCRASQSVSMPFLAWYQQKPGQAPRLLIYGASSRATGIPDRFSGSGSGTDFTLTISRLEPEDFAVYYCQQMRGRPPTFGQGTKVEIKSSSSGSSSSGSSSSGEVQLLESGGGLVQPGGSLRLSCAASGFTFSLFTMSWVRQAPGKGLEWVSAISGSGGSTYYADSVKGRFTISRDNSKNTLYLQMNSLRAEDTAVYYCAKSTHLYLFDYWGQGTLVTVSSGGSGGEIVLTQSPGTLSLSPGERATLSCRASQSVSMPFLAWYQQKPGQAPRLLIYGASSRATGIPDRFSGSGSGTDFTLTISRLEPEDFAVYYCQQMRGRPPTFGQGTKVEIK",,single-agent therapeutic activity (F9 teratocarcinoma): potent single-agent therapeutic activity
"L19-IL4: L19 diabody (anti-EDB of fibronectin) fused to murine IL4 (protein, Synthetic sequence Amino acid sequence of the L19-murine IL4 conjugate of PCT/EP2014/053998) EVQLLESGGGLVQPGGSLRLSCAASGFTFSSFSMSWVRQAPGKGLEWVSSISGSSGTTYYADSVKGRFTISRDNSKNTLYLQMNSLRAEDTAVYYCAKPFPYFDYWGQGTLVTVSSGGSGGEIVLTQSPGTLSLSPGERATLSCRASQSVSSSFLAWYQQKPGQAPRLLIYYASSRATGIPDRFSGSGSGTDFTLTISRLEPEDFAVYYCQQTGRIPPTFGQGTKVEIKSSSSGSSSSGSSSSGHIHGCDKNHLREIIGILNEVTGEGTPCTEMDVPNVLTATKNTTESELVCRASKVLRIFYLKHGKTPCLKKNSSVLMELQRLFRAFRCLDSSISCTMNESKSTSLKDFLESLKSIMQMDYS",shows therapeutic activity,
